According to patent publication US8653120B2, “Method for treatment of chronic neuropathic pain” (Apkarian Technologies LLC, priority 2004, dated 2014):

How the values were obtained:
Format in all cases: in vivo
[1] = tested on: Rats with mechanically injured paws; assay: Rat model of neuropathic pain due to injury: test based on paw position; conditions: same test animals as FIGS. 2A-C; FIGS. 3A-C
Method: Rats with mechanically injured paws were used as models of neuropathic pain. In the test, a weight is applied to the injured paw, and the pain response is assessed. […] Rats (groups or 8-10 rats per treatment) were treated with oral saline (control) or 3, 10 or 30 mg/kg of D-cycloserine for a period of two weeks. Pain was monitored from two days before the treatment commenced for a period of 35 days total. FIGS. 3A-C show results for the same test animals as FIGS. 2A-C, except using a test based on paw position as opposed to tolerance to applied weight. In this case, lower numbers reflect lesser pain.

[2] = tested on: rat exhibiting mechanical sensitivity; assay: Analgesia after infusion into different parts of the rat brain; conditions: 50 μg infusion, FIG. 5
[3] = tested on: rats treated with cisplatin; assay: Rat model of cisplatin-induced neuropathy: mechanical sensitivity
Method: To model drug-induced pain, rats were treated with cisplatin (2 mg/kg), a common chemotherapy drug. As shown graphically in FIG. 4, after 14 days of treatment, the rats had developed mechanical sensitivity. […] In contrast, sensitivity was maintained in rats treated with a saline control (white bars). Thus, in rat models of cisplatin-induced neuropathy, pain behavior decreases 50% in two weeks in animals treated with cycloserine compared with animals treated with placebo.

[4] = tested on: Rats with mechanically injured paws; assay: Rat model of neuropathic pain due to injury: tolerance to weight applied to the injured paw
Method: Rats with mechanically injured paws were used as models of neuropathic pain. In the test, a weight is applied to the injured paw, and the pain response is assessed. […] Rats (groups or 8-10 rats per treatment) were treated with oral saline (control) or 3, 10 or 30 mg/kg of D-cycloserine for a period of two weeks. Pain was monitored from two days before the treatment commenced for a period of 35 days total. […] The open squares represent the control. The black squares represent 30 mg/kg dosage. The two intermediate lines are 3 (lighter) and 10 mg/kg (darker). […] The black squares are the retreated animals, the white squares are the controls and the intermediate colored squares are animals treated for the first time with 30 mg/kg. […] Thus, treatment of chronic pain requires a treatment regimen that extends over a period of time, for example at least one week, sufficient to provide a benefit to the individual being treated.

[5] = 30 mg/kg, longer treatment period, FIG. 2C

With `N[C@@H]1CON=C1O` [D-cycloserine] the “pain measured by paw position (lower numbers reflect lesser pain)” value [1] was “indicates the effectiveness of the D-cycloserine”, the “analgesia after infusion into medial prefrontal cortex” value ([2]; vs saline infusion) was “result in analgesia” and the “analgesia after infusion into bilateral amygdala” value [2] was “result in analgesia”. For the same molecule, the “analgesia after infusion into visual cortex” value [2] was “Only medial prefrontal cortex and amygdala infusions result in analgesia”, the “decrease of pain behavior compared with placebo” value ([3]; cisplatin-induced neuropathy, two weeks of treatment) was 50% and the “effect on cisplatin-induced mechanical sensitivity” value ([3]; oral 30 mg/kg, two treatments per day, 14 days, with cisplatin 2 mg/kg, FIG. 4) was “partial reversal of the mechanical sensitivity”. The “analgesic effectiveness on re-treatment vs first treatment” value ([4]; 30 mg/kg re-treatment starting 1 day after end of the 35 day test, FIG. 2B) was “about twice as great”, the “post-treatment duration of analgesia after longer treatment” value [4, 5] was “significant analgesic affect being observed 30 days after cessation of treatment” and the “time course of analgesic effect with longer treatment” value [4, 5] was “analgesic effect increases with treatment for a period of three weeks, after which a plateau is reached”. The “analgesic effect of acute administration on neuropathic behavior” value ([4]; acute oral or intrathecal administration) was “only minimal analgesic effects”, the post-treatment analgesia ([4]; after end of two-week oral treatment, FIG. 2A) was “long-lasting analgesia” and the “day of return to initial neuropathy levels” value ([4]; after two-week oral treatment, FIG. 2A) was 35 days. For the same molecule, the “analgesic response during treatment (tolerated weight on injured paw)” value ([4]; oral 3, 10 or 30 mg/kg for two weeks, vs saline, FIG. 2A) was “generally dose-dependent response”.
